Experimental data from a melting point compilation (Tetko et al.; mined from patent text by program, amines drawn as free bases though some values may be those of a salt).

melting point | Structure (SMILES)
49 to 51 °C | NN1CCC(Cc2ccc(Cl)cc2)CC1
284 to 286 °C | NC(=O)c1n[nH]c2ccccc12
118 to 123 °C | CCCCCCCCCCCCCCCCCCOC[C@@H]1CO[C@@H](COC(=O)Nc2ccncc2)C1 (relative stereo)
95 to 97 °C | OC1CCCN(CC(O)COc2ccc(-c3ccc(Cl)cc3)cc2)C1 (configuration not stated)
> 255 °C | COc1ccc2c(c1)sc1nc(N)nc(=Nc3ccc(O)cc3)n12
134 to 135 °C | COc1ccc2c(Cl)noc2c1Br
235 to 236 °C | CNS(=O)(=O)c1cn(C)c2cc(Cl)c(F)cc2c1=O
111 to 112 °C | CN(C)CCN(C(=O)c1ccc([N+](=O)[O-])cc1Br)c1ccnc2cc3c(cc12)OCO3
170 °C | COc1cc(O)c(Br)c2cc(-c3ccc(O)cc3)oc12
236 to 238 °C | O=C1C2=C(CCCC2)C(=O)N1c1ccc(Cl)c(O)c1
143 to 145 °C | COc1ccc(-c2nn(-c3ccc(C)cc3)c3ncccc23)cc1
92 to 94 °C | COc1ccc(N2CCN(Cc3cn(C)c4ncccc34)CC2)cc1
141 to 142 °C | CC(C)c1nn(-c2ccc(C(F)(F)F)cn2)cc1CCCOc1c(Cl)cccc1CC(=O)O
> 200 °C | N#Cc1ccc(-c2cnc3c(c2)N(Cc2ccccc2)C(=O)CN3)cn1
213 to 216 °C | Nc1ccc2c(Cl)cc(Cl)nc2n1
240 to 242 °C | CCc1cc(-c2nnc3c4ccccc4c(OCc4ncnn4C)nn23)no1
138 to 140 °C | CC(=O)c1cccc(NC(=O)NC2N=C(C(C)C)c3ccccc3N(CC(=O)N3CC4CCC(CC4)C3)C2=O)c1 (configuration not stated)
73 to 74 °C | C#CCC(CCc1ccccc1)(C(N)=S)c1cccnc1 (configuration not stated)
> 220 °C | Cc1cn(S(=O)(=O)c2ccc(=O)[nH]n2)c2ccccc12
291 °C | CC1(C)C(=CC=C2C(=O)c3ccccc3C2=C(C#N)C#N)N2CCCc3cccc1c32
165 to 166 °C | COc1ccc(-c2csc(N(C)c3cc4ccccc4cn3)n2)cc1OC
176 °C | CN(C)c1cccc(C(=C2CN(C(c3ccccc3)c3ccccc3)C2)S(C)(=O)=O)c1
163 to 165 °C | CSC(=N)Nc1nc(C(C)(C)C)c(O)c(C(C)(C)C)n1
255 to 257 °C | O=C1Nc2cc(Br)ccc2N2CCc3cccc1c32
192 to 196 °C | CCNc1cc(OC)ccc1S(=O)(=O)N1C(=O)C(N)(c2ccccc2Cl)c2cc(Cl)ccc21 (configuration not stated)
243 to 245 °C | O=C1NC(=O)C(c2ccc(N3C(=O)c4ccccc4C3=O)cc2)S1 (configuration not stated)

melting point | Structure (SMILES)
64 to 65 °C | C/C(=C\C(C)O)c1ccc(C2CCCCCC2)cc1 (configuration not stated)
156 to 158 °C | NNc1ccc(CS(N)(=O)=O)cc1
115 to 118 °C | O=S(=O)(N[C@H](CO)C1CCCCC1)c1ccc(Cl)cc1
137 to 138 °C | CCCCOc1ccc(C(C)N(O)C(N)=O)cc1 (configuration not stated)
70 to 71 °C | CCc1nc(CN(C)C(=O)N[C@H](C(=O)N[C@@H](Cc2ccccc2)C[C@H](O)[C@H](Cc2ccccc2)NC(=O)OCc2cncs2)C(C)C)cs1
183 °C | Cc1cccc(-c2nc3c(C)cccn3c2-c2ccnc(-c3ccc(OCC(N)=O)cc3)c2)n1
50 to 51.5 °C | O=[N+]([O-])c1ccc(F)c(Br)c1F
111 to 113 °C | CN(C)c1ncc([N+](=O)[O-])cc1Cl
149 to 150 °C | O=C(CCN1CCOCC1)Nc1cc(-c2nnc(SCc3cccc(F)c3)o2)ccn1
175 °C | C=C(C)CN1Cc2cc(Cl)cc3[nH]c(=O)n(c23)CC1C (configuration not stated)
204 to 206 °C | COc1cnc2sc(S(=O)(=O)Cc3ccccc3)nn2c1=O
291 to 293 °C | CC(c1ccccc1)c1ccc(-c2cnn3c(O)ncnc23)cc1 (configuration not stated)
174 °C | Cc1cccc(N2CCN(c3ccc(S)nn3)CC2)c1
217 °C | CN1C(=O)CNN(c2cc(Cl)c(Oc3ccc(S(C)(=O)=O)cc3)c(Cl)c2)C1=O
148 to 150 °C | CN1CCOc2cc(S(=O)(=O)n3c(COC(C)(C)C(=O)O)cc4cc(C(F)(F)F)ccc43)ccc21
119 to 120 °C | O=C(NCc1cccs1)C1(c2ccc(Cl)cc2)CCCC1
204 to 206 °C | COc1nc(Br)cnc1NS(=O)(=O)c1ccccc1-c1ccc(C)cc1
211 to 213 °C | CC[C@H](C)[C@H](NC(=O)NC(C)C)C(=O)N[C@H](CO)Cc1c[nH]c2ccccc12
138 to 139 °C | CC(=O)c1ccc(NC(=O)C(N)c2ccc3c(c2)C(C)(C)CCC3(C)C)cc1 (configuration not stated)
82 to 83 °C | CCCn1nnn(-c2cc(OC)c(C(F)(F)F)cc2Cl)c1=O
44 to 46 °C | CC1(C)OC(=O)C(C(=O)C2CC2)C(=O)O1
154 to 156 °C | COc1cc2c(c(Cl)c1Cl)C(=O)CC2
140 to 143 °C | CCON=Cc1cc(-n2c(=O)cc(C(F)(F)F)n(C)c2=O)c(Cl)cc1Cl
134 to 136 °C | CC(c1oc2ccccc2c(=O)c1-c1cccc(F)c1)n1nc(-c2ccc(Cl)c(O)c2)c2c(N)ncnc21 (configuration not stated)
230 to 231 °C | CCOC(=O)CS(=O)(=O)Cc1cccc(-c2c(CC(=O)Nc3ccc(F)cc3C(F)(F)F)c(=O)oc3cc(Cl)c(C)cc23)c1
225 °C | COc1cc2c(cc1OC)C1=NCC(CBr)N1C(SC)=N2 (configuration not stated)

melting point | Structure (SMILES)
105 °C | Cn1c(C#N)c(F)n(-c2ccc(Cl)cc2)c1=O
74 °C | CC(C)C=CC(CC1CCCCC1)NC(=O)OC(C)(C)C (racemic)
190 to 192 °C | COC(=O)c1cc(I)c[nH]c1=O
93.7 °C | COc1ccc([C@]2(C)CNC(=O)O2)cc1OCC(C)C
179 to 180 °C | c1cc2[nH]ncc2cc1NC1CCN(CC2CCCCC2)CC1
108 to 112 °C | NCCOc1ccncc1
255 to 258 °C | O=C1CNc2ncc(-c3cnc4[nH]ccc4c3)nc2N1CCC1CCOCC1
140 to 142 °C | O=S1(=O)C=Cc2cc(Br)ccc2O1
145 to 146 °C | O=c1ccn(-c2ccccc2C(F)(F)F)nc1-c1ccnn1-c1ccccc1
128 to 130 °C | Fc1ccc(-c2cc(CNc3cc(C4CC=CS4)n[nH]3)n[nH]2)cc1 (configuration not stated)
97 to 105 °C | Cc1nn(C)cc1S(N)(=O)=O
182 to 185 °C | C=CCONC(=O)c1nc(-c2ccc(F)cc2)cc(N)c1Cl
230 to 232 °C | O=C1CNc2cc(Br)c(Cl)cc2N1
91 to 93 °C | CCCCCCCCCCCSCCCN=C=O
143 to 145 °C | Cn1c(=O)n(Cc2ccccc2)c(=O)c2cc(C(=O)OCc3ccccc3)sc21
155 to 157 °C | CN(C)CCC1CCCCN1CC(=O)N1c2ccccc2NC(=O)c2ccccc21 (configuration not stated)
178 °C | CCOc1nn(C(=O)N(CCCF)S(=O)(=O)N=c2[nH]ccs2)c(=O)n1C
45.5 °C | Cn1nc(-c2cc(F)c([N+](=O)[O-])cc2F)c(Br)c1C(F)(F)F
83 to 84 °C | CC1(C)SCc2ccccc2C1=NO
191 °C | O=C1NCc2cccn2-c2ccsc21
84 to 85 °C | CC(C)[C@H](NC(=O)N(C)Cc1ccccn1)C(=O)N[C@@H](Cc1ccccc1)[C@@H](O)C[C@H](Cc1ccccc1)NC(=O)OC(C)(C)C
68 to 71 °C | CC(C)(C)OC(=O)N1Cc2ccccc2CN1CC(O)C(Cc1ccccc1)NC(=O)OCc1ccccc1 (configuration not stated)
99 to 100 °C | CCOCCOc1ccc(C(C)C)c(NC(=O)CN2CCN(CCCSc3nc4ccccc4o3)CC2)c1C(C)C
114 to 116 °C | CC(=O)NCC1CN(c2ccc(N3CCC(C)(O)C(C)(C)C3)c(F)c2)C(=O)O1 (configuration not stated)
148 to 150 °C | NC(=NCC(F)(F)F)Nc1ccnc(SCCCC(=O)NCCO)n1
68 to 72 °C | CC(C)(C)c1ccccc1N1CCN(C(=O)Nc2ccccc2)CC1

melting point | Structure (SMILES)
166 to 168 °C | CCN1c2ncc(CO)cc2C(=O)N(C)c2ccc(Cl)nc21
253 to 254 °C | COC(=O)c1cc(NC(=O)c2ccc(Cl)cc2)c2cc(Cc3ccc(F)cc3)cnc2c1O
68 to 71 °C | COc1cccc(C2=C(CN(C)C)COc3ccccc32)c1
287 to 288 °C | O=C(O)c1cc(Cl)c(C(=O)O)c([N+](=O)[O-])c1Cl
125 to 127 °C | Cc1oncc1C(=O)N1CCC[C@H](c2nc(-c3ccc[nH]3)no2)C1
143 to 147 °C | CS(=O)(=O)c1ccc(-c2sc(-c3ccccc3Cl)nc2-c2ccccc2Cl)cc1
30 °C | CCOCCCNC(=O)C(C)(C(C)C)C(C)C
78 to 82 °C | CN(C)c1ccc(C=CC(C=C(c2ccc(N(C)C)cc2)c2ccc(N(C)C)cc2)C=C(c2ccc(N(C)C)cc2)c2ccc(N(C)C)cc2)cc1
162 to 165 °C | CC(C)(C)C(=O)Nc1cccc(-c2ccc(C3CCNC3=O)cc2F)n1 (configuration not stated)
218 to 221 °C | COc1ccc(CCNC(=O)/C=C/c2cccs2)cc1S(N)(=O)=O
70 to 71 °C | CN1C(C)(C)CC(O)CC1(C)C
204 to 206 °C | Cc1cccc(Nc2cc(Cl)nc(Cl)n2)c1C
177 to 179 °C | CCc1nn(C2CCCC2)c2cc(C(=O)Nc3c(Cl)cccc3Cl)ccc12
116 to 117 °C | CCN(CC)CCNC(=O)c1cc(Cl)c(N)cc1OCCCS(C)=O (configuration not stated)
91 to 98 °C | CCC1CCC(CCc2ccccc2NC(=O)C=Cc2ccccc2)N(C)C1 (configuration not stated)
147 to 150 °C | COC(=O)c1ccc(N)cn1
92 to 94 °C | CCCOc1cccc(NC(=O)c2ccccc2C)c1
130 to 131 °C | Cc1cc(N2C(=O)N(CCCCCN3C(=O)N(c4ccc([N+](=O)[O-])c(C)c4)C(=O)C3(C)C)C(C)(C)C2=O)ccc1[N+](=O)[O-]
126 to 127 °C | COc1cccc(OC)c1C(=O)P(=O)(C(=O)c1c(C)cc(C)cc1C)c1ccccc1 (configuration not stated)
140 °C | O=C(NCc1nc2cnc3cc(Br)ccc3c2n1CC1CCOCC1)C1CC1
174 to 175 °C | C=CCc1c(O)c(=O)[nH]c2ccccc2c1=O
70 °C | CC1Cc2c(N)ccc(Cl)c2O1 (configuration not stated)
155 to 158 °C | COc1cc(C=CC(COc2ccccc2)=NO)ccc1O

Structure (SMILES) | melting point
O=C(OC1c2nccnc2C(=O)N1c1ccc(Cl)cn1)N1CCNCC1 (configuration not stated) | 205 °C
